Patent publication US20250228855A1, “PYRAZINAMIDE COMPOUNDS” (The General Hospital Corporation, priority 2022, published 2025)
Structures can show the parent of a compound that is named as a salt. Where two headings read alike, the source gives them in different places.

Tests used:
PfcProRS = PfcProRS (Plasmodium falciparum, UniProt Q8I5R7); test: TR-FRET ligand displacement assay with tracer MAT379, PfcProRS; assay type: binding
HsProRS = molecular target: T1, HsProRS (Homo sapiens, UniProt P07814); test: TR-FRET ligand displacement assay with tracer MAT379, HsProRS; assay type: binding
T1 sequence (P07814 1007-1512 limits assumed): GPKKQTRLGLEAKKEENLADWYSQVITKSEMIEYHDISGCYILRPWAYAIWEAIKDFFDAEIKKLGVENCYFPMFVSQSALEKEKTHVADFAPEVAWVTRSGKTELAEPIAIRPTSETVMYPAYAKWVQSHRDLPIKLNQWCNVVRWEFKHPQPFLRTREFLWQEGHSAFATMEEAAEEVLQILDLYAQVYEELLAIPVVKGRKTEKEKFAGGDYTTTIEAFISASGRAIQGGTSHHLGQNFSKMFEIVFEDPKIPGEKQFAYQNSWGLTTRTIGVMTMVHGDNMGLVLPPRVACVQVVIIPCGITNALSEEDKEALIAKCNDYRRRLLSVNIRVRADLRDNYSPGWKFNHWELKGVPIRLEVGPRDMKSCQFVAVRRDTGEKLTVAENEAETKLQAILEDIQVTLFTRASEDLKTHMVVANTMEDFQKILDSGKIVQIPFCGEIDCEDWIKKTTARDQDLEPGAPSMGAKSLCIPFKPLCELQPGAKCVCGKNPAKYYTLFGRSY

P. falciparum Dd2-2D4 = test: P. falciparum asexual blood stage growth assay, wild-type Dd2-2D4; details: for EC50: Plasmodium falciparum, DD2, 72 h, read-out: Dd2 (EC50 [nM]) wt
Description: Asexual blood stage (ABS) P. falciparum parasites were treated with test compounds at varying concentrations for 72 h, followed by quantification of parasite growth by SYBR Green staining.
P. falciparum Asexual Blood Stage Growth Assay: This assay was performed as previously described.

[1] = read-out: HsProRS (KD [nM]) +proline, 100 μM Pro
[2] = no proline, no ATP, read-out: PfcProRS (KD [nM]) −
[3] = no proline, no ATP, read-out: HsProRS (KD [nM]) −
[4] = PfcProRS (KD [nM]) +proline, 100 μM Pro
[5] = read-out: PfcProRS (KD [nM]) +proline, 100 μM Pro

Sequence of PfcProRS (Q8I5R7 whole entry): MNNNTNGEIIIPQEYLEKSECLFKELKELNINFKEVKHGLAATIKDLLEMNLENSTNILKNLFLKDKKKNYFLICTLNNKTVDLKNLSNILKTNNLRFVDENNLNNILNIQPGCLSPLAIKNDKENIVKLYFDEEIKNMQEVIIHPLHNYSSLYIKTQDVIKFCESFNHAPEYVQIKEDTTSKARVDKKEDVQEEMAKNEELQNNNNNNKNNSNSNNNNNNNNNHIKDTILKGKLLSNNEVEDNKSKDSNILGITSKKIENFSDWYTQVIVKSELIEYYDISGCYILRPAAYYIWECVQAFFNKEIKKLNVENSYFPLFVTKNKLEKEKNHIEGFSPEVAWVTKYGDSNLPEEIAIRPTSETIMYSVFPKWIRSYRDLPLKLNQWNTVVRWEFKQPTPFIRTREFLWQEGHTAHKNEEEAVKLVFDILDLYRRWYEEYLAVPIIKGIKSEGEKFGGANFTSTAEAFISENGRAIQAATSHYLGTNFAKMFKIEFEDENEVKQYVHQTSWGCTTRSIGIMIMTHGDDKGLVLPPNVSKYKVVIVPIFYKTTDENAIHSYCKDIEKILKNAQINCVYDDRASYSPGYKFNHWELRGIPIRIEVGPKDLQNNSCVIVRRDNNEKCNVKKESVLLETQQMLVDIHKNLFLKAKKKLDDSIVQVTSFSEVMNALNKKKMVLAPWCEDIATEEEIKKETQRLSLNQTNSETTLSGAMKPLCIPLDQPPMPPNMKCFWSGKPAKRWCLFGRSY

O=C(C[C@@H]1NCCC[C@@H]1OC(=O)NS(=O)(=O)N1CCN(C(=O)Nc2nccnc2C(=O)NC2Cc3ccccc3C2)CC1)Cn1cnc2cc(Br)c(Cl)cc2c1=O (relative stereo) [iso-MAT436(40), cis-2-(3-(7-bromo-6-chloro-4-oxoquinazolin-3(4H)-yl)-2-oxopropyl)piperidin-3-yl ((4-((3-((2,3-dihydro-1H-inden-2-yl)carbamoyl)pyrazin-2-yl)carbamoyl)piperazin-1-yl)sulfonyl)carbamate]
fold lower affinity / reduced biochemical potency relative to MAT436 (PfcProRS): ~10 fold
fold lower affinity / reduced biochemical potency relative to MAT436 (PfcProRS; listed as 40): 5-10 fold
Kd (HsProRS; [1]): 20.8 nM
fold less active than MAT436 against ABS P. falciparum (P. falciparum Dd2-2D4): 3 fold

CC(C)N(C(=O)Nc1nccnc1C(=O)NC1Cc2ccccc2C1)C(C)C [Compound 5, N-(2,3-dihydro-1H-inden-2-yl)-3-(3,3-diisopropylureido)pyrazine-2-carboxamide]
Kd (PfcProRS; [2]): > 2860 nM
Kd (HsProRS; [3]): > 8720 nM
EC50 (P. falciparum Dd2-2D4): > 10000 nM

CC(C)(C)OC(=O)NC1CCN(C(=O)Nc2nccnc2C(=O)NC2Cc3ccccc3C2)CC1 [Compound 7, tert-butyl (1-((3-((2,3-dihydro-1H-inden-2-yl)carbamoyl)pyrazin-2-yl)carbamoyl)piperidin-4-yl)carbamate]
Kd (HsProRS; [3]): 22.1 nM
Kd (HsProRS; [1]): 34.8 nM

NC1CCN(C(=O)Nc2nccnc2C(=O)NC2Cc3ccccc3C2)CC1 [Compound 8, 3-(4-aminopiperidine-1-carboxamido)-N-(2,3-dihydro-1H-inden-2-yl)pyrazine-2-carboxamide dihydrochloride]
Kd (PfcProRS; [4]): > 2180 nM
Kd (PfcProRS; [2]): > 2860 nM
Kd (HsProRS): > 5090 nM
Kd (HsProRS; HsProRS (KD [nM]) −): > 8720 nM

NCC1CCN(C(=O)Nc2nccnc2C(=O)NC2Cc3ccccc3C2)CC1 [Compound 10, 3-(4-(aminomethyl)piperidine-1-carboxamido)-N-(2,3-dihydro-1H-inden-2-yl)pyrazine-2-carboxamide dihydrochloride]
Kd (PfcProRS; [4]): > 2180 nM
Kd (PfcProRS; [2]): > 2860 nM
Kd (HsProRS; HsProRS (KD [nM]) −): > 8720 nM
Kd (HsProRS; [1]): 1360 nM

O=C(NC1Cc2ccccc2C1)c1nccnc1NC(=O)N1CCC(CO)CC1 [Compound 11, N-(2,3-dihydro-1H-inden-2-yl)-3-(4-(hydroxymethyl)piperidine-1-carboxamido)pyrazine-2-carboxamide]
Kd (PfcProRS; [2]): 299 nM
Kd (HsProRS; [3]): 265 nM
EC50 (P. falciparum Dd2-2D4): 712 nM

CC(C)(C)OC(=O)N1CCN(C(=O)Nc2nccnc2C(=O)NC2Cc3ccccc3C2)CC1 [Compound 13, tert-butyl 4-((3-((2,3-dihydro-1H-inden-2-yl)carbamoyl)pyrazin-2-yl)carbamoyl)piperazine-1-carboxylate]
Kd (PfcProRS; [4]): > 2180 nM
Kd (PfcProRS; [2]): > 2860 nM
Kd (HsProRS): > 5090 nM
Kd (HsProRS; [3]): > 8720 nM

O=C(NC1Cc2ccccc2C1)c1nccnc1NC(=O)N1CCNCC1 [Compound 14, N-(2,3-dihydro-1H-inden-2-yl)-3-(piperazine-1-carboxamido)pyrazine-2-carboxamide dihydrochloride]
Kd (PfcProRS; [4]): 1630 nM
Kd (PfcProRS; [2]): > 2860 nM
Kd (HsProRS; HsProRS (KD [nM]) −): > 8720 nM
Kd (HsProRS; [1]): 347 nM

CC(C)(C)OC(=O)NC1(C(=O)Nc2nccnc2C(=O)NC2Cc3ccccc3C2)CCCCC1 [Compound 16, tert-butyl (1-((3-((2,3-dihydro-1H-inden-2-yl)carbamoyl)pyrazin-2-yl)carbamoyl)cyclohexyl)carbamate]
Kd (PfcProRS; [4]): > 2180 nM
Kd (PfcProRS; [2]): > 2860 nM
Kd (HsProRS): > 5090 nM
Kd (HsProRS; [3]): > 8720 nM
EC50 (P. falciparum Dd2-2D4): 6110 nM

NC1(C(=O)Nc2nccnc2C(=O)NC2Cc3ccccc3C2)CCCCC1 [Compound 17, 3-(1-aminocyclohexane-1-carboxamido)-N-(2,3-dihydro-1H-inden-2-yl)pyrazine-2-carboxamide]
Kd (PfcProRS; [4]): 131 nM
Kd (PfcProRS; [2]): 1390 nM
Kd (HsProRS; [3]): 4430 nM
Kd (HsProRS; [1]): 25.5 nM
EC50 (P. falciparum Dd2-2D4): 5790 nM

O=C(NC1Cc2ccccc2C1)c1nccnc1NC(=O)C1CCOCC1 [Compound 18, N-(2,3-dihydro-1H-inden-2-yl)-3-(tetrahydro-2H-pyran-4-carboxamido)pyrazine-2-carboxamide]
Kd (PfcProRS; [4]): 1590 nM
Kd (PfcProRS; [2]): > 2860 nM
Kd (HsProRS; [3]): 7400 nM
Kd (HsProRS; [1]): 225 nM
EC50 (P. falciparum Dd2-2D4): > 20000 nM

O=C(Nc1nccnc1C(=O)NC1Cc2ccccc2C1)c1ccccc1 [Compound 21, 3-benzamido-N-(2,3-dihydro-1H-inden-2-yl)pyrazine-2-carboxamide]
Kd (PfcProRS; [4]): 1430 nM
Kd (PfcProRS; [2]): > 2860 nM
Kd (HsProRS; [3]): 7830 nM
Kd (HsProRS; [1]): 140 nM
EC50 (P. falciparum Dd2-2D4): 9600 nM

O=C(O)CCCC(=O)Nc1nccnc1C(=O)NC1Cc2ccccc2C1 [Compound 22, 5-((3-((2,3-dihydro-1H-inden-2-yl)carbamoyl)pyrazin-2-yl)amino)-5-oxopentanoic acid]
Kd (PfcProRS; [4]): > 2180 nM
Kd (PfcProRS; [2]): > 2860 nM
Kd (HsProRS): > 5090 nM
Kd (HsProRS; [3]): > 8720 nM
EC50 (P. falciparum Dd2-2D4): 12300 nM

NC(=O)Nc1nccnc1C(=O)NC1Cc2ccccc2C1 [Compound 23, N-(2,3-dihydro-1H-inden-2-yl)-3-ureidopyrazine-2-carboxamide]
Kd (PfcProRS; [4]): > 2180 nM
Kd (PfcProRS; [2]): > 2860 nM
Kd (HsProRS): > 5090 nM
Kd (HsProRS; [3]): > 8720 nM
EC50 (P. falciparum Dd2-2D4): 12100 nM

Nc1nccnc1C(=O)NC1Cc2ccccc2C1 [Compound 45, 3-amino-N-(2,3-dihydro-1H-inden-2-yl)pyrazine-2-carboxamide]
Kd (PfcProRS; [4]): > 2180 nM
Kd (PfcProRS; [2]): > 2860 nM
Kd (HsProRS): > 5090 nM
Kd (HsProRS; [3]): > 8720 nM
EC50 (P. falciparum Dd2-2D4): 13600 nM

CNc1nccnc1C(=O)NC1Cc2ccccc2C1 [Compound 46, N-(2,3-dihydro-1H-inden-2-yl)-3-(methylamino)pyrazine-2-carboxamide]
Kd (PfcProRS; [4]): > 2180 nM
Kd (PfcProRS; [2]): > 2860 nM
Kd (HsProRS): > 5090 nM
Kd (HsProRS; [3]): > 8720 nM
EC50 (P. falciparum Dd2-2D4): 8110 nM

O=c1[nH]c2nccnc2c(=O)n1C1Cc2ccccc2C1 [Compound 47, 3-(2,3-dihydro-1H-inden-2-yl)pteridine-2,4(1H,3H)-dione]
Kd (PfcProRS; [4]): > 2180 nM
Kd (PfcProRS; [2]): > 2860 nM
Kd (HsProRS; [3]): > 8720 nM
EC50 (P. falciparum Dd2-2D4): 11100 nM

CC(C)(C)OC(=O)NCCCCCC(=O)NCCCCCC(=O)NC1CCN(C(=O)Nc2nccnc2C(=O)NC2Cc3ccccc3C2)CC1 [MAT420]
Kd (PfcProRS; [5]): 332 nM
Kd (PfcProRS; read-out: PfcProRS (KD [nM]) −, no proline, no ATP): 292 nM
Kd (HsProRS; [1]): 781 nM
Kd (HsProRS; read-out: HsProRS (KD [nM]) −, no proline, no ATP): 415 nM

NCCCCCC(=O)NCCCCCC(=O)NC1CCN(C(=O)Nc2nccnc2C(=O)NC2Cc3ccccc3C2)CC1 [MAT421]
Kd (PfcProRS; [2]): 2280 nM
Kd (PfcProRS; [5]): 1960 nM
Kd (HsProRS; [3]): 2340 nM
Kd (HsProRS; [1]): 2260 nM

Nc1ncnc2c1ncn2[C@@H]1O[C@H](COS(=O)(=O)NC(=O)OC2CCCNC2CC(=O)Cn2cnc3cc(Br)c(Cl)cc3c2=O)[C@@H](O)[C@H]1O (stereo partly drawn) [MAT430, ((2R,3S,4R,5R)-5-(6-amino-9H-purin-9-yl)-3,4-dihydroxytetrahydrofuran-2-yl)methy ((((2S,3R)-2-(3-(7-bromo-6-chloro-4-oxoquinazolin-3(4H)-yl)-2-oxopropyl)piperidin-3-yl)oxy)carbonyl)sulfamate]
Kd (PfcProRS; [2]): 5.01 nM
Kd (HsProRS; [3]): 18.4 nM

O=C(CCCCCNC(=S)NC1CCCCC1)NC1CCN(C(=O)Nc2nccnc2C(=O)NC2Cc3ccccc3C2)CC1 [MAT483]
Kd (PfcProRS; [2]): 198 nM
Kd (PfcProRS; [5]): 171 nM
Kd (HsProRS; [3]): 1000 nM
Kd (HsProRS; [1]): 3020 nM

O=C(NS(=O)(=O)N1CCN(C(=O)Nc2nccnc2C(=O)NC2Cc3ccccc3C2)CC1)OCCn1cnc2ccccc2c1=O [MAT512, 2-(4-oxoquinazolin-3(4H)-yl)ethyl ((4-((3-((2,3-dihydro-1H-inden-2-yl)carbamoyl)pyrazin-2-yl)carbamoyl)piperazin-1-yl)sulfonyl)carbamate]
EC50 (P. falciparum Dd2-2D4): > 10000 nM
